Test: Thermal stability note in synthesis of Example 2
Type: physicochemical
Conditions: observation on isolated title compound
Method: To a solution of Intermediate 27 (42 mg, 0.068 mmol) in N,N-dimethylformamide (1.5 mL) a solution of formic hydrazide (14 mg, 0.229 mmol) in N,N-dimethylformamide (0.3 mL) followed by mercury(II) chloride (62 mg, 0.229 mmol) were introduced. After 5 minutes stirring at room temperature under an atmosphere of nitrogen, a solution of triethylamine (23 mg, 0.229 mmol) in N,N-dimethylformamide (0.2 mL) was introduced and the reaction warmed to 80° C. for 1.7 hours. After cooling to room temperature, the reaction mixture was diluted with dichloromethane (10 mL), kieselguhr (1.0 g) was introduced, and the suspension stirred for 10 minutes. The suspension was then filtered and the filter-cake washed with dichloromethane (10 mL). Evaporation of the combined filtrates in-vacuo furnished a residue which was purified by low pH preparative liquid chromatography to furnish the title compound (2.3 mg at 88% purity LCMS-UV215, 5% yield) as a colourless solid. LCMS [m+H]^+ 553, RT 2.07 min (Method 3).

Cc1cc(Nc2nncn2C2CCc3cc4cnc(C5CC5)cc4c(S(=O)(=O)NCC(C)(C)F)c3C2)n(C)n1 (stereo not shown) [Example 2, 3-cyclopropyl-7-[3-[(2,5-dimethylpyrazol-3-yl)amino]-1,2,4-triazol-4-yl]-N-(2-fluoro-2-methylpropyl)-6,7,8,9-tetrahydrobenzo[g]isoquinoline-5-sulfonamide]
thermal stability: thermally unstable

Reference: patent publication US12410161B2, “Tetrahydrobenzo-quinoline sulfonamides derivative compounds” (UCB Biopharma SRL, priority 2019, dated 2025)
